Target: T1, SHP2 protein (Homo sapiens, UniProt Q06124)
T1 sequence (Q06124 1-593): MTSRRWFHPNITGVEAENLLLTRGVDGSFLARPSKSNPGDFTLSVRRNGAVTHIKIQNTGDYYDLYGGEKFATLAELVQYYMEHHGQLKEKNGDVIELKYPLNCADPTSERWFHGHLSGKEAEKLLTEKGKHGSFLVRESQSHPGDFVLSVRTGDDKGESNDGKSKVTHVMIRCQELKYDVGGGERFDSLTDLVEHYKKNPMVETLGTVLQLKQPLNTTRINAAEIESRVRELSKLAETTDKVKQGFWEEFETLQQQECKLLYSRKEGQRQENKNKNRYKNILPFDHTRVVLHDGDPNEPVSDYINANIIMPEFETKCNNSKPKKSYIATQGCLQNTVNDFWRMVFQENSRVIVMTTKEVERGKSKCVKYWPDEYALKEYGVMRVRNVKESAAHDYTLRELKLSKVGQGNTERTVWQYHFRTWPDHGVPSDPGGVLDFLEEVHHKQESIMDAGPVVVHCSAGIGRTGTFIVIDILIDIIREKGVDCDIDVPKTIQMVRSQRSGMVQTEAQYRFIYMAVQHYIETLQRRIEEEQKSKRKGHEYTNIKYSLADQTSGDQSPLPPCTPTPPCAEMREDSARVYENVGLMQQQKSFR
Test: Measurement of SHP2 protein degradation in MV-4-11 cells (western blotting)
Type: cell-based
Parameters: endogenous in cells; host or cells: MV-4-11
Conditions: MV-4-11 cells, 24 hours
Description: Experimental Example 2: Measurement of SHP2 Protein Degradation in MV-4-11 Cells
MV-4-11 cells were treated with the synthesized Example compound, and the amount of SHP2 protein present in the cells was measured using western blotting detection. The protocol of the experiment conducted using MV-4-11 cells was as follows:
[Culture] MV-4-11 cells resuspended in IMDM MEDIUM (Hyclone, SH30228.01) containing 5% FBS (Hyclone, SV30207.02) and 1% Penicillin-streptomycin (Welgene, LS 202-02) were seeded at a density of 1×10^6/mL/well in a 12-well plate in an amount of 1 ml each.
[Compound treatment] The 12-well plate was treated as follows: Cells were treated with compounds at a final concentration of […] made by serial dilution of 10 mM stock with DMSO in 1/100 increments […]. After 24 hours, cells were harvested. For the negative control group, DMSO diluted 1/100 to the media (3 mL DMSO+297 mL media) was added.
[Harvest] Each well was collected in a 1.5 mL microtube by pipetting with a 1 mL pipette and centrifuged (500 g, 5 min, 4° C.). The supernatant was removed. It was washed with PBS, and then centrifuged again (500 g, 5 min, 4° C.). Thereafter, the supernatant was removed to prepare a pellet.
[Cell Lysis and Sample preparation] Lysis buffer was prepared as follows: […] of RIPA buffer (Biosesang, RC2038-050-00)+0.5 mM PMSF (SIGMA, P7626)+1× Protease/Phosphatase Inhibitor (Cell signaling, 5872S) per well was added and placed on ice for 30 minutes (vortexing at 0 and 30 minutes, respectively). After sonication process (10 seconds pulse, 30 seconds rest, 5 cycles, 70% amplification), centrifugation (15000 g, 15 min, 4° C.) was performed, and then only the supernatant was taken and transferred to a microtube. The sample was diluted ¼ with RIPA buffer in a 96-well plate, and mixed with A:B=50:1 of the BCA Protein Assay Kit (iNtRON, 21071). […] each of the mixture was left at 37° C. for 30 minutes, and cooled for 10 minutes. Then, absorbance was measured at 562 nm with the SYNERGY H1 microplate reader from BioTek. After making a sample by quantifying the protein with the measured value, boiling was performed at 70° C. for 10 minutes. At this time, the sample buffer used was a mixture of NuPAGE or Bolt 4× sample buffer (Invitrogen) and each 10× sample reducing agent according to the gel to be used, and RIPA buffer was used for protein dilution.
[Western blotting detection method] The same amount of sample was loaded on NuPAGE or Bolt Bis-tris 4-12% gradient gel and run (200 V, 35 minutes). It was transferred to 0.2 mm NC membrane with Trans-blot Turbo (BIO-RAD) (1.3 A constant, 25 V limit, 15 minutes). Blocking was performed at room temperature for 1 hour with Skim milk or Intercept Blocking Buffer (LI-COR, 927-60001):0.1% TBST=1:1. Anti-SHPTP2 Mouse (1:500 in 2% BSA/0.2% TBST, size: 70 kDa, Santacruz sc-7384) was incubated overnight at 4° C., and Anti-GAPDH Rabbit (1:2,000 in 2% BSA/0.2% TBST, size: 37 kDa, CST #2118) was incubated at room temperature for 1 hour 30 minutes or 3 hours. It was washed 3 times for 5 minutes each with 0.2% TBST washing buffer. Secondary antibody Anti-Rabbit IgG (1:5,000 in 2% BSA/0.2% TBST, CST), IRDye® 680RD Goat anti-Rabbit IgG Secondary Antibody (1:10,000 in 2% BSA/0.2% TBST, LI-COR 926-68071) were added and incubated for 45 minutes on a rocker at room temperature. It was washed 5 times for 5 minutes each with 0.2% TBST washing buffer and detected with LI-COR's Odyssey. At this time, SHPTP2 was detected using SuperSignal West Pico PLUS Chemiluminescent Substrate, and house-keeping genes were also detected.
In the results of Table 4 below, Compounds 1-7, 13-19, and 21-26 are results in KYSE-520 cells, and the others are results in MV-4-11 cells.

Structure (SMILES) | SHP2 degradation (%) 10 nM [%] | SHP2 degradation (%) 100 nM [%] | SHP2 degradation (%) 1000 nM [%]
Cc1ncsc1-c1ccc(CNC(=O)[C@@H]2C[C@@H](O)CN2C(=O)[C@@H](NC(=O)C2(F)CC2)C(C)(C)C)c(OCCCN2CCC(CC(=O)Nc3cccc(Sc4cnc(N5CCC(C)(N)CC5)cn4)c3Cl)CC2)c1 [Example 8, (2S,4R)—N-(2-(3-(4-(2-((3-((5-(4-amino-4-methylpiperidin-1-yl)pyrazin-2-yl)thio)-2-chlorophenyl)amino)-2-oxoethyl)piperidin-1-yl)propoxy)-4-(4-methylthiazol-5-yl)benzyl)-1-((S)-2-(1-fluorocyclopropane-1-carboxamido)-3,3-dimethylbutanoyl)-4-hydroxypyrrolidine-2-carboxamide] | 39.5 | 92.6 | 96.5
Cc1ncsc1-c1ccc(CNC(=O)[C@@H]2C[C@@H](O)CN2C(=O)[C@@H](NC(=O)C2(F)CC2)C(C)(C)C)c(OCCCN2CCC(CC(=O)Nc3cccc(Sc4ncc(N5CCC(C)(N)CC5)nc4N)c3Cl)CC2)c1 [Example 9, (2S,4R)—N-(2-(3-(4-(2-((3-((3-amino-5-(4-amino-4-methylpiperidin-1-yl)pyrazin-2-yl)thio)-2-chlorophenyl)amino)-2-oxoethyl)piperidin-1-yl)propoxy)-4-(4-methylthiazol-5-yl)benzyl)-1-((S)-2-(1-fluorocyclopropane-1-carboxamido)-3,3-dimethylbutanoyl)-4-hydroxypyrrolidine-2-carboxamide] | 39.6 | 93.3 | 95.6
CC(=O)N[C@H](C(=O)N1C[C@H](O)C[C@H]1C(=O)NCc1ccc(-c2scnc2C)cc1OCCCN1CCC(CC(=O)Nc2cccc(Sc3cnc(N4CCC(C)(CN)CC4)cn3)c2Cl)CC1)C(C)(C)C [Example 12, (2S,4R)-1-((S)-2-acetamido-3,3-dimethylbutanoyl)-N-(2-(3-(4-(2-((3-((5-(4-(aminomethyl)-4-methylpiperidin-1-yl)pyrazin-2-yl)thio)-2-chlorophenyl)amino)-2-oxoethyl)piperidin-1-yl)propoxy)-4-(4-methylthiazol-5-yl)benzyl)-4-hydroxypyrrolidine-2-carboxamide] | 23.9 | 88.4 | 93.3
Cc1ncsc1-c1ccc(CNC(=O)[C@@H]2C[C@@H](O)CN2C(=O)[C@@H](NC(=O)C2(F)CC2)C(C)(C)C)c(OCCC2CCN(C(=O)C(=O)Nc3cccc(Sc4cnc(N5CCC(C)(CN)CC5)cn4)c3Cl)CC2)c1 [Example 27, (2S,4R)—N-(2-(2-(1-(2-((3-((5-(4-(aminomethyl)-4-methylpiperidin-1-yl)pyrazin-2-yl)thio)-2-chlorophenyl)amino)-2-oxoacetyl)piperidin-4-yl)ethoxy)-4-(4-methylthiazol-5-yl)benzyl)-1-((S)-2-(1-fluorocyclopropane-1-carboxamido)-3,3-dimethylbutanoyl)-4-hydroxypyrrolidine-2-carboxamide] | 23.5 | 72 | 91.5

Continued, values first:

SHP2 degradation (%) 10 nM [%] | SHP2 degradation (%) 100 nM [%] | SHP2 degradation (%) 1000 nM [%] | Structure (SMILES)
33.7 | 90.9 | 95.0 | Cc1ncsc1-c1ccc(CNC(=O)[C@@H]2C[C@@H](O)CN2C(=O)[C@@H](NC(=O)C2(F)CC2)C(C)(C)C)c(OCCCN2CCC(CC(=O)Nc3cccc(Sc4ncc(N5CCC(C)(CN)CC5)nc4N)c3Cl)CC2)c1 [Example 10, (2S,4R)—N-(2-(3-(4-(2-((3-((3-amino-5-(4-(aminomethyl)-4-methylpiperidin-1-yl)pyrazin-2-yl)thio)-2-chlorophenyl)amino)-2-oxoethyl)piperidin-1-yl)propoxy)-4-(4-methylthiazol-5-yl)benzyl)-1-((S)-2-(1-fluorocyclopropane-1-carboxamido)-3,3-dimethylbutanoyl)-4-hydroxypyrrolidine-2-carboxamide]
−8.9 | 19.2 | 35.9 | Cc1ncsc1-c1ccc(CNC(=O)[C@@H]2C[C@@H](O)CN2C(=O)[C@@H](NC(=O)C2(F)CC2)C(C)(C)C)c(OCCCN2CCC(CC(=O)Nc3cccc(Sc4cnc(N5CC[C@H](CN)C5)cn4)c3Cl)CC2)c1 [Example 11, (2S,4R)—N-(2-(3-(4-(2-((3-((5-((R)-3-(aminomethyl)pyrrolidin-1-yl)pyrazin-2-yl)thio)-2-chlorophenyl)amino)-2-oxoethyl)piperidin-1-yl)propoxy)-4-(4-methylthiazol-5-yl)benzyl)-1-((S)-2-(1-fluorocyclopropane-1-carboxamido)-3,3-dimethylbutanoyl)-4-hydroxypyrrolidine-2-carboxamide]
54.9 | 99.0 |  | Cc1ncsc1-c1ccc(CNC(=O)[C@@H]2C[C@@H](O)CN2C(=O)[C@@H](NC(=O)C2(F)CC2)C(C)(C)C)c(OCCCN2CCC(O)(CC(=O)Nc3cccc(Sc4cnc(N5CCC(C)(CN)CC5)cn4)c3Cl)CC2)c1 [Example 20]
19 | 76.5 | 94 | Cc1ncsc1-c1ccc(CNC(=O)[C@@H]2C[C@@H](O)CN2C(=O)[C@@H](NC(=O)C2(F)CC2)C(C)(C)C)c(OCCCC2CCN(C(=O)C(=O)Nc3cccc(Sc4cnc(N5CCC(C)(CN)CC5)cn4)c3Cl)CC2)c1 [Example 28, (2S,4R)—N-(2-(3-(1-(2-((3-((5-(4-(aminomethyl)-4-methylpiperidin-1-yl)pyrazin-2-yl)thio)-2-chlorophenyl)amino)-2-oxoacetyl)piperidin-4-yl)propoxy)-4-(4-methylthiazol-5-yl)benzyl)-1-((S)-2-(1-fluorocyclopropane-1-carboxamido)-3,3-dimethylbutanoyl)-4-hydroxypyrrolidine-2-carboxamide]

Reference: patent US20250230154A1, “COMPOUND HAVING SHP2 PROTEIN DEGRADING ACTIVITY, AND MEDICAL USES THEREOF” (UBIX THERAPEUTICS, INC., priority 2021, published 2025)
